# Test system: Smaller Tea Tortrix (Adoxophyes orana fosciota)
# Assay: Insecticidal test on smaller tea tortrix, tea leaf dipping
# Assay type: in vivo
# Details: single agent 0.3 ppm, 4th instar larvae, 25° C.
# Description: Insecticidal Test on Smaller Tea Tortrix (Adoxophyes orana fosciota)
# Tea leaves were dipped in a solution of a chemical diluted to a prescribed concentration for 30 seconds. […] Four days and seven days after the treatment, the number of alive insects were counted, from which percentage of death was calculated.
SMILES,Death rate (%) After 4 days [%],Death rate (%) After 7 days [%]
Cc1cc(OC(F)(F)F)ccc1NC(=O)c1cccc(Cl)c1C(=O)NC(C)C [Compound 20],0,25
CC(C)NC(=O)c1c(I)cccc1C(=O)Nc1ccc(C(F)(F)F)cc1Cl [Compound 39],0,20

# Test system: Green Peach Aphid (Myzus persicae)
# Assay: Insecticidal test on green peach aphid, spraying of Chinese cabbage, control value
# Assay type: in vivo
# Details: 100 ppm, single agent, 6 days after spraying
row,SMILES,Control degree (%)
1,Cc1cc(OC(F)(F)F)ccc1NC(=O)c1cccc(Cl)c1C(=O)NC(C)C [Compound 20],0
2,CC(C)NC(=O)c1c(I)cccc1C(=O)Nc1ccc(C(F)(F)F)cc1Cl [Compound 39],0

# Test system: Brown Rice Planthopper (Nilaparvata lugens)
# Assay: Insecticidal test on brown rice planthopper, rice seedling dipping
# Assay type: in vivo
# Details: 100 ppm, single agent, after 1 day
# Source text: Insecticidal Test on Brown Rice Planthopper (Nilaparvata lugens)
# Rice seedlings (variety: Nihombare) were dipped in a solution of an agent diluted to a predetermined concentration for 30 seconds. After air-dryness, each seedling was introduced into a glass-made test tube having a diameter of 1.8 cm and a height of 20 cm, and inoculated with ten 3rd inster nimphs of brown rice planthopper. Then, the test tube was stoppered with cotton. One day after and four days after the treatment, the number of alive insects was counted, based on which the insect death rate was calculated.
row,SMILES,Death rate (%) After 1 days [%]
1,Cc1cc(OC(F)(F)F)ccc1NC(=O)c1cccc(Cl)c1C(=O)NC(C)C [Compound 20],0
2,CC(C)NC(=O)c1c(I)cccc1C(=O)Nc1ccc(C(F)(F)F)cc1Cl [Compound 39],0

# Same assay, conditions: 100 ppm, single agent, after 5 days
row,SMILES,Death rate (%) After 5 days [%]
1,Cc1cc(OC(F)(F)F)ccc1NC(=O)c1cccc(Cl)c1C(=O)NC(C)C [Compound 20],0
2,CC(C)NC(=O)c1c(I)cccc1C(=O)Nc1ccc(C(F)(F)F)cc1Cl [Compound 39],0

# Test system: Rice Blast
# Assay: not given
# Details: in vivo
row,SMILES,Areal rate of disease spot (%) After 60 days [%]
1,Cc1cc(OC(F)(F)F)ccc1NC(=O)c1cccc(Cl)c1C(=O)NC(C)C [Compound 20],8.1
2,CC(C)NC(=O)c1c(I)cccc1C(=O)Nc1ccc(C(F)(F)F)cc1Cl [Compound 39],8.2

# Test system: Diamondback Moth (Plutella xyloxtella)
# Assay: Control of diamondback moth on cabbage by soil treatment, number of parasitic insects
# Assay type: in vivo
# Details: 5 mg ai/hill, plant foot treatment, 21 days after transplanting
# Description: (§1) Test for the Control of Diamondback Moth (Plutella xyloxtella) and Aphid on Cabbage by Soil Treatment
# (§2) A granular preparation was mixed into bed soil, and the mixture was filled into a cell seedling box and sown with seeds of cabbage (variety: YR Seitoku). Otherwise, cell seedling planted cabbage was treated with the granular agent either by a treatment in the foliage leaf extraction period, or by a pre-transplanting treatment, or by a pricking-in hole treatment, or by a plant foot treatment after the planting. Twenty one days after the transplanting (in the middle of June), the number of parasitic insects was counted on 30 hills in the case of diamondback moth and on 10 hills in the case of aphid.
row,SMILES,"Number of parasitic insects per 30 hills, Diamondback moth"
1,Cc1cc(OC(F)(F)F)ccc1NC(=O)c1cccc(Cl)c1C(=O)NC(C)C [Compound 20],5
2,CC(C)NC(=O)c1c(I)cccc1C(=O)Nc1ccc(C(F)(F)F)cc1Cl [Compound 39],2

# Same assay, conditions: 5 mg ai/hill, pre-transplanting treatment, 21 days after transplanting
row,SMILES,"Number of parasitic insects per 30 hills, Diamondback moth"
1,Cc1cc(OC(F)(F)F)ccc1NC(=O)c1cccc(Cl)c1C(=O)NC(C)C [Compound 20],6
2,CC(C)NC(=O)c1c(I)cccc1C(=O)Nc1ccc(C(F)(F)F)cc1Cl [Compound 39],4

# Same assay, conditions: 5 mg ai/hill, pricking-in hole treatment, 21 days after transplanting
row,SMILES,"Number of parasitic insects per 30 hills, Diamondback moth"
1,Cc1cc(OC(F)(F)F)ccc1NC(=O)c1cccc(Cl)c1C(=O)NC(C)C [Compound 20],3
2,CC(C)NC(=O)c1c(I)cccc1C(=O)Nc1ccc(C(F)(F)F)cc1Cl [Compound 39],3

# Same assay, conditions: 5 mg ai/hill, soil incorporation, 21 days after transplanting
row,SMILES,"Number of parasitic insects per 30 hills, Diamondback moth"
1,Cc1cc(OC(F)(F)F)ccc1NC(=O)c1cccc(Cl)c1C(=O)NC(C)C [Compound 20],4
2,CC(C)NC(=O)c1c(I)cccc1C(=O)Nc1ccc(C(F)(F)F)cc1Cl [Compound 39],3

# Same assay, conditions: 5 mg ai/hill, true leaf extraction season treatment, 21 days after transplanting
row,SMILES,"Number of parasitic insects per 30 hills, Diamondback moth"
1,Cc1cc(OC(F)(F)F)ccc1NC(=O)c1cccc(Cl)c1C(=O)NC(C)C [Compound 20],2
2,CC(C)NC(=O)c1c(I)cccc1C(=O)Nc1ccc(C(F)(F)F)cc1Cl [Compound 39],2

# Test system: Rice Water Weevil (Lissorhoptrus oryzophilus)
# Assay: Control of rice water weevil on paddyfield rice by nursery box application, extent of injury
# Assay type: in vivo
# Details: 0.5 g ai/Box, single agent
row,SMILES,Extent of injury After 21 days
1,Cc1cc(OC(F)(F)F)ccc1NC(=O)c1cccc(Cl)c1C(=O)NC(C)C [Compound 20],37.4
2,CC(C)NC(=O)c1c(I)cccc1C(=O)Nc1ccc(C(F)(F)F)cc1Cl [Compound 39],38.9

# Test system: Resistant Strain of Two-Spotted Spider Mite
# Assay: not given
# Details: 100 ppm, single agent, 2 days after spraying
row,SMILES,Death rate (%)
1,Cc1cc(OC(F)(F)F)ccc1NC(=O)c1cccc(Cl)c1C(=O)NC(C)C [Compound 20],0
2,CC(C)NC(=O)c1c(I)cccc1C(=O)Nc1ccc(C(F)(F)F)cc1Cl [Compound 39],0

# Test system: Cutworm
# Assay: Test for the effect against cutworm on beet, drench, number of injured hills per 100 hills
# Assay type: in vivo
# Details: 15 g ai/10a
# Description: Test for the Effect Against Cutworm on Beet
# Beet seedlings (variety: Monoace S) planted in a paper pot was treated with 3 L/m^2 of a solution of an agent diluted to a predetermined concentration, by the method of drench. Just after the drench, the plant was set. Predetermined days after the setting, the number of injured hills per 100 hills was counted.
SMILES,"Number of injured hills per 100 hills, After 60 days","Number of injured hills per 100 hills, After 90 days","Number of injured hills per 100 hills, After 120 days"
Cc1cc(OC(F)(F)F)ccc1NC(=O)c1cccc(Cl)c1C(=O)NC(C)C [Compound 20],0,7,20
CC(C)NC(=O)c1c(I)cccc1C(=O)Nc1ccc(C(F)(F)F)cc1Cl [Compound 39],0,6,17

# Test system: Citrus Yellow Thrips (Frankliniella occidentalis)
# Assay: Control of citrus yellow thrips on egg plant by combined use with natural enemy pesticide, number of thrips
# Assay type: in vivo
# Details: 100 ppm, spray
SMILES,"Number of parasitic insects per 20 leaves, After 60 days","Number of parasitic insects per 20 leaves, After 90 days","Number of parasitic insects per 20 leaves, After 120 days"
Cc1cc(OC(F)(F)F)ccc1NC(=O)c1cccc(Cl)c1C(=O)NC(C)C [Compound 20],21,28,49
CC(C)NC(=O)c1c(I)cccc1C(=O)Nc1ccc(C(F)(F)F)cc1Cl [Compound 39],19,32,58

# Test system: Small Brown Planthopper (Laodelphax striatellus)
# Assay: Control of small brown planthopper on paddyfield rice by nursery box application, number of parasitic insects
# Assay type: in vivo
# Details: 0.5 g ai/Box, single agent, after 40 days
# Description: (§3) Test for the Control of Small Brown Planthopper (Laodelphax striatellus) and Rice Leafroller (Cnaphalocrosis medinalis) on Paddyfield Rice Plant by Nursery Box Application
# (§4) Fifty grams of a granular preparation was applied to rice plant (variety: Nihombare) cultured in a nursery box, after which the rice plant was transplanted to the main paddy field (in the middle of May). The controlling effect against small brown planthopper was evaluated by investigating the number of parasitic insects on 30 hills per each plot, 40 days and 60 days after the transplantation. The controlling effect against rice leafroller was evaluated by investigating the number of injured leaves on 100 hills per each plot, 50 days after the transplantation.
row,SMILES,Number of parasitic planthoppers per 30 hills After 40 days
1,Cc1cc(OC(F)(F)F)ccc1NC(=O)c1cccc(Cl)c1C(=O)NC(C)C [Compound 20],315
2,CC(C)NC(=O)c1c(I)cccc1C(=O)Nc1ccc(C(F)(F)F)cc1Cl [Compound 39],343

# Same assay, conditions: 0.5 g ai/Box, single agent, after 60 days
row,SMILES,Number of parasitic planthoppers per 30 hills After 60 days
1,Cc1cc(OC(F)(F)F)ccc1NC(=O)c1cccc(Cl)c1C(=O)NC(C)C [Compound 20],354
2,CC(C)NC(=O)c1c(I)cccc1C(=O)Nc1ccc(C(F)(F)F)cc1Cl [Compound 39],372

# Test system: Rice Leafroller (Cnaphalocrosis medinalis)
# Assay: Control of rice leafroller on paddyfield rice by nursery box application, number of injured leaves
# Assay type: in vivo
# Details: 0.5 g ai/Box, single agent
# Description: as §3, §4
row,SMILES,Percentage of injured leaves (%) After 50 days [%]
1,Cc1cc(OC(F)(F)F)ccc1NC(=O)c1cccc(Cl)c1C(=O)NC(C)C [Compound 20],0.15
2,CC(C)NC(=O)c1c(I)cccc1C(=O)Nc1ccc(C(F)(F)F)cc1Cl [Compound 39],0.25

# Test system: Southern Root-Knot Nematode (Meloidogyne incognita)
# Assay: Test for the effect on southern root-knot nematode, soil blending with granular preparation
# Assay type: in vivo
# Details: 300 g ai/10a, single agent, 60 days after treatment
# Source text: Test for the Effect on Southern Root-Knot Nematode (Meloidogyne incognita)
# Two killograms of a soil polluted with southern root-knot nematode was blended with a predetermined dose of a granular preparation. The mixture was filled into a 1/5,000 are Wagner pot. After sowing melon seeds and carrying out the treatment of the present invention, the pot was left to stand in a greenhouse. Sixty days after the treatment, 25 g of the soil was sampled out, the nematode was separated therefrom according to the method of Berman, and the numbers of nematodes were counted after 48 hours.
# In the tables, “ai” means active ingredient.
row,SMILES,Number of nematodes per 25 g of soil sample
1,Cc1cc(OC(F)(F)F)ccc1NC(=O)c1cccc(Cl)c1C(=O)NC(C)C [Compound 20],28
2,CC(C)NC(=O)c1c(I)cccc1C(=O)Nc1ccc(C(F)(F)F)cc1Cl [Compound 39],34

# Test system: Aphid
# Assay: Control of aphid on cabbage by soil treatment, number of parasitic insects
# Assay type: in vivo
# Details: 5 mg ai/hill, plant foot treatment, 21 days after transplanting
# Description: as §1
# as §2, with “Twenty one days after the transplanting (in the middle of June), the number of parasitic insects was counted on 30 hills in the case of diamondback moth and on 10 hills in the case of aphid.” left out
row,SMILES,"Number of parasitic insects per 30 hills, Aphid"
1,Cc1cc(OC(F)(F)F)ccc1NC(=O)c1cccc(Cl)c1C(=O)NC(C)C [Compound 20],501
2,CC(C)NC(=O)c1c(I)cccc1C(=O)Nc1ccc(C(F)(F)F)cc1Cl [Compound 39],456

# Same assay, conditions: 5 mg ai/hill, pre-transplanting treatment, 21 days after transplanting
row,SMILES,"Number of parasitic insects per 30 hills, Aphid"
1,Cc1cc(OC(F)(F)F)ccc1NC(=O)c1cccc(Cl)c1C(=O)NC(C)C [Compound 20],478
2,CC(C)NC(=O)c1c(I)cccc1C(=O)Nc1ccc(C(F)(F)F)cc1Cl [Compound 39],457

# Same assay, conditions: 5 mg ai/hill, pricking-in hole treatment, 21 days after transplanting
row,SMILES,"Number of parasitic insects per 30 hills, Aphid"
1,Cc1cc(OC(F)(F)F)ccc1NC(=O)c1cccc(Cl)c1C(=O)NC(C)C [Compound 20],499
2,CC(C)NC(=O)c1c(I)cccc1C(=O)Nc1ccc(C(F)(F)F)cc1Cl [Compound 39],437

# Same assay, conditions: 5 mg ai/hill, soil incorporation, 21 days after transplanting
row,SMILES,"Number of parasitic insects per 30 hills, Aphid"
1,Cc1cc(OC(F)(F)F)ccc1NC(=O)c1cccc(Cl)c1C(=O)NC(C)C [Compound 20],512
2,CC(C)NC(=O)c1c(I)cccc1C(=O)Nc1ccc(C(F)(F)F)cc1Cl [Compound 39],513

# Same assay, conditions: 5 mg ai/hill, true leaf extraction season treatment, 21 days after transplanting
row,SMILES,"Number of parasitic insects per 30 hills, Aphid"
1,Cc1cc(OC(F)(F)F)ccc1NC(=O)c1cccc(Cl)c1C(=O)NC(C)C [Compound 20],498
2,CC(C)NC(=O)c1c(I)cccc1C(=O)Nc1ccc(C(F)(F)F)cc1Cl [Compound 39],487
